Results published in paper PMC9103758 (International Journal of Molecular Sciences, 2022).
Entries after “also recorded” stand apart in the source; their conditions may differ.

Key:
[1] = molecular target: T1, VRAC-mediated chloride current (ICl, swell) in LN215 cells (Homo sapiens, UniProt Q8IWT6); assay: Whole-cell voltage-clamp of ICl,swell in LN215 cells; type: cell-based; details: dose-dependent
T1 construct: endogenous in cells; host or cells: LN215 human glioma cells stably expressing the halide sensor YFP-F46L/H148Q/I152L
T1 sequence (Q8IWT6 1-810): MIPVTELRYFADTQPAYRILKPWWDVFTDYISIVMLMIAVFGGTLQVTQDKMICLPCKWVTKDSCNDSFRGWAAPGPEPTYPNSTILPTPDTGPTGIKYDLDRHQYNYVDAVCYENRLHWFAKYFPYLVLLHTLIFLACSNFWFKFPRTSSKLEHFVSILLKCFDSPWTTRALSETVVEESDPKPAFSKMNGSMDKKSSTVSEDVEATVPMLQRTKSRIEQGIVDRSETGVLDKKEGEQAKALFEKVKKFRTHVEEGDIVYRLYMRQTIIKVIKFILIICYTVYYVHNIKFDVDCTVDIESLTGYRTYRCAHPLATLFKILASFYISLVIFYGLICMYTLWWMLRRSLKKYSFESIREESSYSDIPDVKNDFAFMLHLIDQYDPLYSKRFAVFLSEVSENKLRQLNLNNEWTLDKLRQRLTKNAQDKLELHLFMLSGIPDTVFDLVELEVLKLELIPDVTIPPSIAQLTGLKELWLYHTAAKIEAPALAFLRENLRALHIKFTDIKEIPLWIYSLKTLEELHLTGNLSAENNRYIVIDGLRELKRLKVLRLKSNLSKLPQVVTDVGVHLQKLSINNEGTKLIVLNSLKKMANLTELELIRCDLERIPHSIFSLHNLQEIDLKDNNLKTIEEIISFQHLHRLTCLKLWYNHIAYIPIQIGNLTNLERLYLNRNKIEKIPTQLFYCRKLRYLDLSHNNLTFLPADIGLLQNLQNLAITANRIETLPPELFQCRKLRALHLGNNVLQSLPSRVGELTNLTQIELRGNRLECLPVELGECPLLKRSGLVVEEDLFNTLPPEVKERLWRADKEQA
Method: (A) Whole-cell membrane currents were recorded at a holding potential of −50 mV by voltage steps ranging from −120 to 120 mV (in steps of 20 mV) in HEK293T cells. […] (C) Whole-cell VRAC currents were recorded at a holding potential of −50 mV by voltage steps ranging from −100 to 100 mV (in steps of 20 mV) in LN215 cells.
For volume-regulated anion channel (VRAC) currents measurement, the isotonic bath solution contained (in mM): 150 NaCl, 6 KCL, 1.5 CaCl2, 1 MgCl2, 10 glucose, 1 HEPES, and pH 7.4 with NaOH (320 mOsm). […] The pipette solution contained (in mM): 40 CsCl, 100 Cs-methanesulfonate, 0.5 EGTA, 1 MgCl2, 1.9 CaCl2, 5 EGTA, 4 Tris−ATP, 10 HEPES, and pH 7.2 with CsOH (290 mOsm). Pipettes were pulled from borosilicate glass and had resistances of 3–5 MΩ after fire polishing. Seal resistances were between 3 and 10 GΩ. The liquid junction potential (~2.4 mV) was not corrected. After establishing the whole-cell configuration, whole-cell capacitance and series resistance were compensated with the amplifier circuitry. VRAC was activated by exposing LN215 cells to a 25% hypotonic bath solution. Whole-cell currents were elicited by applying hyperpolarizing and depolarizing voltage pulses from a holding potential of 0 mV to potentials between −100 mV and +100 mV or −120 mV and +120 mV in steps of 20 mV. Recordings were made at room temperature. […]

[2] = molecular target: T2, ANO1 (Homo sapiens, UniProt Q5XXA6, DEL476-501); assay: YFP fluorescence quenching assay for ANO1 activity in FRT-ANO1 cells; type: cell-based; details: ATP 100 μM, n = 4
T2 construct: expressed in transfected cells; host or cells: Fisher rat thyroid (FRT) cells; The YFP assay uses FRT-ANO1-YFP cells, which also carry the halide sensor
T2 sequence (Q5XXA6 with tags, fused parts or gaps isoform Q5XXA6-5 DEL539-564): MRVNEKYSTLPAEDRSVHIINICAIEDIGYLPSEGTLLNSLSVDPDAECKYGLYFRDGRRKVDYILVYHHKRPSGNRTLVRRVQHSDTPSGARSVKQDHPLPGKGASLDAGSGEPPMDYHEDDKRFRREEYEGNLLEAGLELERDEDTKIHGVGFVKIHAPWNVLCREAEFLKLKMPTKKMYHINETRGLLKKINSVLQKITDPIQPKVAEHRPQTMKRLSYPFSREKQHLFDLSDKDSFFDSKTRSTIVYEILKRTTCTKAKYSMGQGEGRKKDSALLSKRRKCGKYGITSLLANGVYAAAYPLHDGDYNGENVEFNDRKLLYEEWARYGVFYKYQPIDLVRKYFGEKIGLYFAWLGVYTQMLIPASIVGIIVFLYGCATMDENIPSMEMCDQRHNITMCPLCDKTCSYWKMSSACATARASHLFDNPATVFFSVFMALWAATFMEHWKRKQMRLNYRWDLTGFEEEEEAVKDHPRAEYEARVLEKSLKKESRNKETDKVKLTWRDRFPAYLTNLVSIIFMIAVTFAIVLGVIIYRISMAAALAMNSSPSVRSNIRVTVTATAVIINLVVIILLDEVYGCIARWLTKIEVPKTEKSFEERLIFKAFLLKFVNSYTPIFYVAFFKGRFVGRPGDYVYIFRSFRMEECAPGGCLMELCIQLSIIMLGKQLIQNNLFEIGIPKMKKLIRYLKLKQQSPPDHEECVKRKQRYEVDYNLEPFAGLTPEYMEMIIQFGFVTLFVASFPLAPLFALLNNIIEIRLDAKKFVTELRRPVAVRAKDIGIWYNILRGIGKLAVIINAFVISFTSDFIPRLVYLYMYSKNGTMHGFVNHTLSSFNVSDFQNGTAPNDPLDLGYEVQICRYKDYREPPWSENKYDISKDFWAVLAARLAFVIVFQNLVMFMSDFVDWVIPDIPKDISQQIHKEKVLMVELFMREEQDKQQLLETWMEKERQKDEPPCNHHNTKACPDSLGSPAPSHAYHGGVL
Method: Figure 2 Inhibitory effects of VI-101, VI-201 and VI-301 on VRAC and ANO1. (A–C) Representative YFP fluorescence traces for VRAC activity. LN215 cells were treated with the indicated concentrations of VI-101, VI-201 and VI-301 with hypotonic solution for 5 min. (D) Dose-response curve of VRAC inhibition (mean ± S.E., n = 4). (E–G) Representative YFP fluorescence traces for ANO1 activity. […]. (H) Dose-response curve of ANO1 inhibition (mean ± S.E., n = 4).
Human ANO1(abc) expressing Fisher rat thyroid (FRT) cells, ANO2 expressing FRT cells, and human CFTR expressing FRT cells were cultured as described in a previous study. LN215 cells were stably transfected with the halide sensor YFP-F46L/H148Q/I152 and NIH-3T3 cells cultured in DMEM were supplemented with 10% FBS, 2 mM L-glutamine, 100 units/mL penicillin, and 100 μg/mL streptomycin. HEK293T cells were stably transfected with the human Kv11.1 (hERG) and cultured in DMEM supplemented with 10% FBS, 2 mM L-glutamine, 100 units/mL penicillin, and 100 μg/mL streptomycin. PC3, HT29, and HeLa cells were stably transfected with the halide sensor YFP-F46L/H148Q/I152 and cultured in RPMI 1640 supplemented with 10% FBS, 2 mM L-glutamine, 100 units/mL penicillin, and 100 μg/mL streptomycin. […]

[3] = molecular target: T3, VRAC in HeLa cells (Homo sapiens, UniProt Q8IWT6); type: cell-based
T3 construct: endogenous in cells; host or cells: HeLa cervical cancer cells stably expressing the YFP halide sensor
T3 sequence (Q8IWT6 1-810): T1 sequence (Q8IWT6 1-810)

[4] = tested on: ATP-induced intracellular calcium signaling in FRT cells; assay: Intracellular calcium measurement (Fluo-4) in FRT cells; type: cell-based, rat; details: 100 μM ATP
Method: (A) Representative Fluo4 fluorescence traces from 3 independent experiments in FRT cells. […] (B,C) Representative apical membrane currents from 3–4 independent experiments in FRT cells expressing human ANO1. […] (D) Representative YFP fluorescence traces in FRT cells expressing human ANO2. […] (E) Representative Fluo4 fluorescence traces from 3 independent experiments in FRT cells. Cells were pretreated with DCPIB for 10 min followed by application of 100 μM ATP. (F) Representative apical membrane currents in FRT cells expressing human ANO1.
FRT cells were plated on 96-well black-walled microplates and loaded with Fluo-4 NW according to the manufacturer’s protocol (Invitrogen, Carlsbad, CA, USA). […] The 96-well plates were transferred to a plate reader for fluorescence assay.

COc1cccc(C(c2c(O)c3ccccc3oc2=O)c2c(O)c3ccccc3oc2=O)c1O [VI-116, 3,3′-((2-hydroxy-3-methoxyphenyl)methylene)bis(4-hydroxy-2H-chromen-2-one)]
effect on hypotonic perfusion activated ICl, swell [1]: completely blocked | IC50 [2]: 39.1 µM | IC50 [3]: 1.2 ± 0.08 µM | effect on intracellular calcium signaling ([4]; 30 μM): weak inhibitory effect | effect on ATP-induced increase in intracellular calcium levels ([4]; up to 10 μM): no effect; also recorded: did not affect
